The text below walks through data of US11447480B2, “Compound exhibiting enteropeptidase inhibitory activity” (LG CHEM, LTD., priority 2018, dated 2022).

This assay addresses Recombinant Human Enteropeptidase (Homo sapiens (Human), UniProt P98073). Nature of the assay: Enteropeptidase Inhibition Assay. The assay is classed as biochemical. The conditions noted are these: substrate Acetyl-Asp-Asp-Asp-Asp-Lys-AFC 30 μM, 30° C., 1 hour; Ki calculated from IC50 using Cheng-Prusoff equation. The method, then: Enteropeptidase Inhibition Assay
The inhibitory activity of the enteropeptidase inhibitor synthesized using the purified Recombinant Human Enteropeptidase and the substrate Acetyl-Asp-Asp-Asp-Asp-Lys-AFC (BioVision) was measured. 7.2 ng/mL of Enteropeptidase diluted with a buffer (20 mM Tris, 50 mM NaCl, pH 7.5) in a 96 well plate (Costar), 30 μM of Acetyl-Asp-Asp-Asp-Asp-Lys-AFC, several concentrations of Enteropeptidase inhibitors (1% DMSO concentration) were dispensed such that a final volume was 100 μL, and then the enzyme reaction was carried out at 30° C. for 1 hour. At this time, 1% DMSO, a substrate and Enteropeptidase instead of the compound were dispensed onto positive control wells, and 1% DMSO and a substrate were dispensed onto negative control wells. The enzyme reaction was […] using an excitation wavelength of 380 nm and an emission wavelength of 500 nm in a fluorescence spectrometer, and then the rate of increase in fluorescence (milli-units per min) between 20 and 60 minutes was measured.
The fluorescence measurement values reduced by the inhibitor diluted at each concentration were converted into relative values % of the positive control group (100% reactivity) and the negative control group (0% reactivity), and used to calculate IC50 values. IC50 is the concentration of the inhibitor that inhibits the enzyme activity by 50%, and was calculated using PRISM (GraphPad). Ki values were calculated from the IC50 values using Cheng-Prusoff equation.

Recombinant Human Enteropeptidase, sequence (P98073 whole entry): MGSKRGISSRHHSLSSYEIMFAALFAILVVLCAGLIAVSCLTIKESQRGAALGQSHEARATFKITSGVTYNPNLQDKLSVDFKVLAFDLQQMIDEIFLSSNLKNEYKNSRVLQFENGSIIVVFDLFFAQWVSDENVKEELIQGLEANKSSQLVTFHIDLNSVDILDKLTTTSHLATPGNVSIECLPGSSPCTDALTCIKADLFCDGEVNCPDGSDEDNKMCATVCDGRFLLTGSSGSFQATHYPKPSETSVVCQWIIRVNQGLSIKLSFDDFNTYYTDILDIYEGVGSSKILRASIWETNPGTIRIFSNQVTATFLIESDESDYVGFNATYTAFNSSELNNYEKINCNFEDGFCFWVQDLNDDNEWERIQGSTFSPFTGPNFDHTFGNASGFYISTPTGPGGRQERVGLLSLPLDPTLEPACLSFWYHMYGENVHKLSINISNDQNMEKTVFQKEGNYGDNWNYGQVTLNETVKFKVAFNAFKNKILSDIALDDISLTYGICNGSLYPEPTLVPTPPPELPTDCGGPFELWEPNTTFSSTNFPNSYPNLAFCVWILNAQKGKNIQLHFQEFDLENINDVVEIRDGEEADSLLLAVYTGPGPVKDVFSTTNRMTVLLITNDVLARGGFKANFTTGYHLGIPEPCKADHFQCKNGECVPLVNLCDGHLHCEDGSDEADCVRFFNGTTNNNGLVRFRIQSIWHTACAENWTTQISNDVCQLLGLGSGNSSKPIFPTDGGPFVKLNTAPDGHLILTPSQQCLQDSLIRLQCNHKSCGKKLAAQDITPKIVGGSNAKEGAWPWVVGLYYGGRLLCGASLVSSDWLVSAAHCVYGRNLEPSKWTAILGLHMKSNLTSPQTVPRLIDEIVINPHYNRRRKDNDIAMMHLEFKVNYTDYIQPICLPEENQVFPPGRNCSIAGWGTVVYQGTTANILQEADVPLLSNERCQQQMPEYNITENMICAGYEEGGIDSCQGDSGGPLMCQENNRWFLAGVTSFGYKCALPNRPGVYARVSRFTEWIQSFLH

With `N=C(N)c1ccc(OC(=O)c2cnc(N3CCC(C(=O)NCCC(=O)O)CC3)s2)c(F)c1` [Example 43, 3-(1-(5-((4-Carbamimidoyl-2-fluorophenoxy)carbonyl)thiazol-2-yl)piperidine-4-carboxamido)propanoic Acid], the Ki (usually the dissociation constant of the complex between target and ligand, obtained from inhibition or displacement) is 1.7 nM.

Take `CN(CCCC(=O)O)C(=O)C1CCN(c2ncc(C(=O)Oc3ccc(C(=N)N)cc3F)s2)CC1` [Example 44, 4-(1-(5-((4-carbamimidoyl-2-fluorophenoxy)carbonyl)thiazol-2-yl)-N-methylpiperidine-4-carboxamido)butanoic Acid]: the inhibitory constant (Ki) was 1.6 nM.

Turning to `CC(C)(CNC(=O)C1CCN(c2ncc(C(=O)Oc3ccc(C(=N)N)cc3F)s2)CC1)C(=O)O` [Example 45, 3-(1-(5-((4-Carbamimidoyl-2-fluorophenoxy)carbonyl)thiazol-2-yl)piperidine-4-carboxamido)-2,2-dimethylpropanoic Acid], the inhibition constant (Ki) was 1.5 nM.

`CCN(CCC(=O)N[C@@H](CC(=O)OC(C)(C)C)C(=O)OC(C)(C)C)c1ncc(C(=O)Oc2ccc(C(=N)N)cc2F)s1` [Example 46, Di-tert-butyl(3-((5-((4-carbamimidoyl-2-fluorophenoxy)carbonyl)thiazol-2-yl)(ethyl)amino)propanoyl)-L-aspartate]: the inhibition constant (Ki) is 40 nM.

With `CCN(CCC(=O)N[C@@H](CC(=O)O)C(=O)O)c1ncc(C(=O)Oc2ccc(C(=N)N)cc2F)s1` [Example 47, (3-((5-((4-Carbamimidoyl-2-fluorophenoxy)carbonyl)thiazol-2-yl)(ethyl)amino)propanoyl)-L-aspartic Acid], the inhibitory constant (Ki) was 0.52 nM.

Take `CCN(CCC(=O)N[C@H](CCC(=O)OC(C)(C)C)C(=O)OC(C)(C)C)c1ncc(C(=O)Oc2ccc(C(=N)N)cc2F)s1` [Example 48]: the Ki was 37 nM.

With `CCN(CCC(=O)N[C@H](CCC(=O)O)C(=O)O)c1ncc(C(=O)Oc2ccc(C(=N)N)cc2F)s1` [Example 49, (3-((5-((4-Carbamimidoyl-2-fluorophenoxy)carbonyl)thiazol-2-yl)(ethyl)amino)propanoyl)-D-glutamic Acid], the inhibition constant Ki was 0.57 nM.

On to `CCN(CCC(=O)Nc1ccc(C(=O)OC)cc1)c1ncc(C(=O)Oc2ccc(C(=N)N)cc2F)s1` [Example 50, 4-Carbamimidoyl-2-fluorophenyl 2-(ethyl(3-((4-(methoxycarbonyl)phenyl)amino)-3-oxopropyl)amino)thiazole-5-carboxylate], for which the Ki is 14 nM.

Consider `CCN(CCC(=O)Nc1cccc(C(=O)OC)c1)c1ncc(C(=O)Oc2ccc(C(=N)N)cc2F)s1` [Example 51, 4-Carbamimidoyl-2-fluorophenyl 2-(ethyl(3-((3-(methoxycarbonyl)phenyl)amino)-3-oxopropyl)amino)thiazole-5-carboxylate], for which the inhibition constant (Ki) was 9.7 nM.

For the compound `CCN(CCC(=O)Nc1ccc(C(=O)OC(C)(C)C)cc1)c1ncc(C(=O)Oc2ccc(C(=N)N)cc2F)s1` [Example 52, 4-Carbamimidoyl-2-fluorophenyl 2-((3-((4-(tert-butoxycarbonyl)phenyl)amino)-3-oxopropyl)(ethyl)amino)thiazole-5-carboxylate], the inhibition constant Ki is 82 nM.

As for `CCN(CCC(=O)Nc1cccc(C(=O)OC(C)(C)C)c1)c1ncc(C(=O)Oc2ccc(C(=N)N)cc2F)s1` [Example 53], the inhibitory constant (Ki) was 12 nM.

In the case of `CCN(CCC(=O)Nc1cccc(C(=O)O)c1)c1ncc(C(=O)Oc2ccc(C(=N)N)cc2F)s1` [Example 54, 3-(3-((5-((4-Carbamimidoyl-2-fluorophenoxy)carbonyl)thiazol-2-yl)(ethyl)amino)propanamido)benzoic Acid], the Ki is 2.5 nM.

Regarding `CCN(CCC(=O)Nc1ccc(C(=O)O)cc1)c1ncc(C(=O)Oc2ccc(C(=N)N)cc2F)s1` [Example 55, 4-(3-((5-((4-Carbamimidoyl-2-fluorophenoxy)carbonyl)thiazol-2-yl)(ethyl)amino)propanamido)benzoic Acid], the Ki is 8.2 nM.

For the compound `CC(C)(CNc1nc2ccc(C(=O)Oc3ccc(C(=N)N)cc3F)cc2s1)C(=O)O` [Example 56, 3-((6-((4-Carbamimidoyl-2-fluorophenoxy)carbonyl)benzo[d]thiazol-2-yl)amino)-2,2-dimethylpropanoic Acid], the inhibition constant (Ki) was 0.59 nM.

With `COC(=O)C1CCN(c2nc3ccc(C(=O)Oc4ccc(C(=N)N)cc4)cc3s2)CC1` [Example 57, 4-Carbamimidoylphenyl 2-(4-(methoxycarbonyl)piperidin-1-yl)benzo[d]thiazole-6-carboxylate], the inhibition constant (Ki) is 13 nM.

Regarding `N=C(N)c1ccc(OC(=O)c2ccc3nc(N4CCC(C(=O)O)CC4)sc3c2)cc1` [Example 58, 1-(6-((4-Carbamimidoylphenoxy)carbonyl)benzo[d]thiazol-2-yl)piperidine-4-carboxylic Acid], the inhibition constant Ki was 7.4 nM.

On to `COC(=O)CCNc1nc2ccc(C(=O)Oc3ccc(C(=N)N)cc3)cc2s1` [Example 59, 4-Carbamimidoylphenyl 2-((3-methoxy-3-oxopropyl)amino)benzo[d]thiazole-6-carboxylate], for which the inhibition constant Ki was 14 nM.

As to `COC(=O)CCN(C)c1nc2ccc(C(=O)Oc3ccc(C(=N)N)cc3)cc2s1` [Example 60, 4-Carbamimidoylphenyl 2-((3-methoxy-3-oxopropyl)(methyl)amino)benzo[d]thiazole-6-carboxylate], the Ki was 10 nM.

For the compound `CCN(CCC(=O)OC)c1nc2ccc(C(=O)Oc3ccc(C(=N)N)cc3)cc2s1` [Example 61, 4-Carbamimidoylphenyl 2-(ethyl(3-methoxy-3-oxopropyl)amino)benzo[d]thiazole-6-carboxylate], the inhibitory constant (Ki) is 10 nM.

In the case of `CN(CCC(=O)O)c1nc2ccc(C(=O)Oc3ccc(C(=N)N)cc3)cc2s1` [Example 62, 3-((6-((4-Carbamimidoylphenoxy)carbonyl)benzo[d]thiazol-2-yl)(methyl)amino)propanoic Acid], the Ki is 4.3 nM.

Turning to `COC(=O)CCCN(C)c1nc2ccc(C(=O)Oc3ccc(C(=N)N)cc3)cc2s1` [Example 63, 4-Carbamimidoylphenyl 2-((4-methoxy-4-oxobutyl)(methyl)amino)benzo[d]thiazole-6-carboxylate], the inhibition constant Ki is 13 nM.

`CN(CCCC(=O)O)c1nc2ccc(C(=O)Oc3ccc(C(=N)N)cc3)cc2s1` [Example 64, 4-((6-((4-Carbamimidoylphenoxy)carbonyl)benzo[d]thiazol-2-yl)(methyl)amino)butanoic Acid]: the inhibitory constant (Ki) was 6.4 nM.

Regarding `N=C(N)c1ccc(OC(=O)c2ccc3nc(NCCC(=O)O)sc3c2)cc1` [Example 65, 3-((6-((4-Carbamimidoylphenoxy)carbonyl)benzo[d]thiazol-2-yl)amino)propanoic Acid], the Ki is 5.7 nM.

For the compound `CCN(CCC(=O)O)c1nc2ccc(C(=O)Oc3ccc(C(=N)N)cc3)cc2s1` [Example 66, 3-((6-((4-Carbamimidoylphenoxy)carbonyl)benzo[d]thiazol-2-yl)(ethyl)amino)propanoic Acid], the inhibition constant (Ki) is 4.8 nM.

Regarding `COC(=O)C(C)(C)CNc1nc2ccc(C(=O)Oc3ccc(C(=N)N)cc3)cc2s1` [Example 67, 4-Carbamimidoylphenyl 2-((3-methoxy-2,2-dimethyl-3-oxopropyl)amino)benzo[d]thiazole-6-carboxylate], the inhibition constant (Ki) is 19 nM.

As to `COC(=O)C(C)(C)CN(C)c1nc2ccc(C(=O)Oc3ccc(C(=N)N)cc3)cc2s1` [Example 68, 4-Carbamimidoylphenyl 2-((3-methoxy-2,2-dimethyl-3-oxopropyl)(methyl)amino)benzo[d]thiazole-6-carboxylate], the Ki is 6 nM.

On to `CCN(CC(C)(C)C(=O)OC)c1nc2ccc(C(=O)Oc3ccc(C(=N)N)cc3)cc2s1` [Example 69, 4-Carbamimidoylphenyl 2-(ethyl(3-methoxy-2,2-dimethyl-3-oxopropyl)amino)benzo[d]thiazole-6-carboxylate], for which the Ki was 21 nM.

As for `CCN(CC(C)(C)C(=O)OC)c1nc2ccc(C(=O)Oc3ccc(C(=N)N)cc3F)cc2s1` [Example 70, 4-Carbamimidoyl-2-fluorophenyl 2-(ethyl(3-methoxy-2,2-dimethyl-3-oxopropyl)amino)benzo[d]thiazole-6-carboxylate], the Ki is 3.5 nM.

In the case of `COC(=O)CCCN(C)c1nc2ccc(C(=O)Oc3ccc(C(=N)N)cc3F)cc2s1` [Example 71, 4-Carbamimidoyl-2-fluorophenyl 2-((4-methoxy-4-oxobutyl)(methyl)amino)benzo[d]thiazole-6-carboxylate], the Ki was 1.1 nM.

As for `COC(=O)CCN(C)c1nc2ccc(C(=O)Oc3ccc(C(=N)N)cc3F)cc2s1` [Example 72, 4-Carbamimidoyl-2-fluorophenyl 2-((3-methoxy-3-oxopropyl)(methyl)amino)benzo[d]thiazole-6-carboxylate], the inhibition constant (Ki) was 1.3 nM.

For `CC(C)(CNc1nc2ccc(C(=O)Oc3ccc(C(=N)N)cc3)cc2s1)C(=O)O` [Example 73, 3-((6-((4-Carbamimidoylphenoxy)carbonyl)benzo[d]thiazol-2-yl)amino)-2,2-dimethylpropanoic Acid], the Ki was 0.89 nM.

For the compound `CCN(CC(C)(C)C(=O)O)c1nc2ccc(C(=O)Oc3ccc(C(=N)N)cc3)cc2s1` [Example 74, 3-((6-((4-Carbamimidoylphenoxy)carbonyl)benzo[d]thiazol-2-yl)(ethyl) Amino)-2,2-dimethylpropanoic Acid], the Ki was 8.9 nM.
